From publication PMC10895674, “First-in-Class Dual EZH2-HSP90 Inhibitor Eliciting Striking Antiglioblastoma Activity In Vitro and In Vivo” (Journal of Medicinal Chemistry, 2024)
Where two headings read alike, the source gives them in different places.

Key:
[1] = system: Pt3R cells; experiment: Cell cycle analysis (PI staining, flow cytometry); assay type: cell-based, human; conditions: 24 h treatment (Figure 8E)
Procedure: Figure 8 Compound 7 suppresses gene expression of CENP family. (A) Compound 7-suppressed CENP family. (B) Gene expression of CENP family in Pt3 and TMZ-resistant Pt3R cells. (C) Prognostic value was analyzed using the GlioVis Web site. (D) Western blotting was used to confirm that compound 7 decreased CENPs expression. (E) Cell cycle analysis. After treatment for 24 h, cells were stained with propidium iodide (PI) and subjected to flow cytometry analysis.

[2] = target: EZH2 (Homo sapiens, UniProt Q15910); experiment: EZH2 inhibition assay (Reaction Biology Corp.); assay type: biochemical; conditions: 10-dose IC50 mode, 3-fold serial dilution starting at 10 μM, single experiment
Procedure: The EZH2 inhibitory ability of the synthesized adduct was assessed by Reaction Biology Corporation Malvern, PA. (http://www.reactionbiology.com).

[3] = system: Pt3R cells; experiment: Western blotting; assay type: cell-based, human
Procedure: Furthermore, the impact of compound 7 treatment on centromere proteins (CENPs) was assessed. As such, CENPs are the main constituent proteins of the kinetochore, which are essential for cell division. CENPs expression is elevated in GBM tissues and correlated with unfavorable overall survival in glioma patients.[53]
(§1) Thus, the ability of compound 7 to disturb redox homeostasis in TMZ-resistant cells and attain amplified therapeutic efficacy for GBM was evaluated. In both Pt3 and Pt3R cells, treatment with compound 7 for 48 h increased the ROS level (Figure 10A). […] Moreover, it was also observed that compound 7 increased mitochondria-derived ROS.
The detailed procedure was described in our previous study.[54],[55],[58],[59] Primary antibodies, anti-CENPA, anti-CENPE, anti-CENPF, and anti-CENPI antibodies, were purchased from abcam (Cambridge, U.K.); anti-CDK1 and anticyclin B1 antibodies were purchased from Santa Cruz Biotechnology, Inc. (Dallas, TX); and anti-EZH2 and anti-H3K27^me3 antibodies were purchased from GeneTex International Corporation (HsinChu, Taiwan), anti-Caspase-3 was purchased from GeneTex International Corporation; anti-cleaved Caspase-3 was purchased from Cell Signaling Technology (Danvers, Massachusetts).

[4] = system: mitochondria-derived ROS; experiment: MitoSOX assay; assay type: cell-based; conditions: Figure 10C
Procedure: as §1
(§2) Figure 10 Compound 7 triggers ROS production from mitochondria. (A) After treatment for 48 h, cells were stained with the DHR reagent, and the fluorescent signal was estimated by flow cytometry. Treatment concentration of compound 7 was indicated. (B) Protein lysates were subjected to Western blotting using the indicated antibody. (C) After staining with MitoSOX (red) and Hoechst 33342 (blue), cellular signals were photographed and quantified D. Protein lysates were subjected to Western blotting using the indicated antibody.
(§3) Dihydrorhodamine 123 (DHR; Thermo Fisher Scientific, Waltham, MA) was used to label cellular ROS detected by the flow cytometry,[54] and the MitoSOX reagent (Thermo Fisher Scientific) was used to label mitochondrial ROS.[55]

[5] = system: blood–brain barrier (BBB); experiment: BBB permeability (chamber coated with endothelial cells and astrocytes, MTT of Pt#3-R in lower chamber); assay type: in vitro ADME; conditions: upper chamber, 72 h; 0, 1, 5, 10 (mM printed); viability of Pt#3-R in lower chamber by MTT
Procedure: Fig. S1 Compound 7 was added in the upper chamber coated with endothelial cells and astrocytes, and incubated
for 72 h. Subsequently, the viability of Pt#3-R in the lower chamber was analyzed by the MTT assay. As shown […]

[6] = system: Pt3 cells; experiment: ROS assay (DHR, flow cytometry); assay type: cell-based, human; conditions: 48 h
Procedure: as §2, §3

[7] = system: Pt3R cells; experiment: ROS assay (DHR, flow cytometry); assay type: cell-based, human; conditions: 48 h
Procedure: as §2, §3

[8] = Pharmacokinetics IV and PO; design: species or system Rat; conditions: in vivo
Procedure: Table S1: Pharmacokinetic data of compound 7
Rat IV (dose: 2 mg/kg) Rat PO (dose: 20 mg/kg)
T1/2 CL Vss AUC(0-inf) T1/2 Cmax Tmax AUC(0-inf) F
(hr) (ml/min/kg) (l/kg) (ng/mL*hr) (hr) (ng/ml) (hr) (ng/mL*hr) (%)
Sample Time (hr) Avg. S.D.

[9] = system: TMZ-resistant Pt3R cells; experiment: RNA-seq gene expression profile (and cell morphology) after 48 h; assay type: cell-based, human
Procedure: To gain insights regarding the ability of dual inhibitor 7 to suppress the viability of TMZ-resistant GBM cells, RNA-seq to analyze gene expression profiles was performed.
Figure 7 Effect of compound 7 on gene expression profile in TMZ-resistant Pt3R cells. […] (B) GSEA functionally grouped genes. (C) Genes involved in apoptosis/necrosis and M phase/Kinetochore/Spindle were clustered in the heatmap.
RNA was isolated using the RNA extracting kit (Zymo Research, Irvine, CA) and subjected to RNA-seq serviced by BIOTOOLS Co., Ltd. (New Taipei City, Taiwan). Cell pellets were collected and subjected to proteomic analysis serviced by BIOTOOLS Co., Ltd. The comparison in gene expression between Pt3 and Pt3R was performed using RNA seq and described previously.[60]

[10] = Rat IV 2 mg/kg, read-out: Drug Conc. Avg.
[11] = Rat PO 20 mg/kg, read-out: Drug Conc. Avg.

EZH2, sequence (Q15910 whole entry): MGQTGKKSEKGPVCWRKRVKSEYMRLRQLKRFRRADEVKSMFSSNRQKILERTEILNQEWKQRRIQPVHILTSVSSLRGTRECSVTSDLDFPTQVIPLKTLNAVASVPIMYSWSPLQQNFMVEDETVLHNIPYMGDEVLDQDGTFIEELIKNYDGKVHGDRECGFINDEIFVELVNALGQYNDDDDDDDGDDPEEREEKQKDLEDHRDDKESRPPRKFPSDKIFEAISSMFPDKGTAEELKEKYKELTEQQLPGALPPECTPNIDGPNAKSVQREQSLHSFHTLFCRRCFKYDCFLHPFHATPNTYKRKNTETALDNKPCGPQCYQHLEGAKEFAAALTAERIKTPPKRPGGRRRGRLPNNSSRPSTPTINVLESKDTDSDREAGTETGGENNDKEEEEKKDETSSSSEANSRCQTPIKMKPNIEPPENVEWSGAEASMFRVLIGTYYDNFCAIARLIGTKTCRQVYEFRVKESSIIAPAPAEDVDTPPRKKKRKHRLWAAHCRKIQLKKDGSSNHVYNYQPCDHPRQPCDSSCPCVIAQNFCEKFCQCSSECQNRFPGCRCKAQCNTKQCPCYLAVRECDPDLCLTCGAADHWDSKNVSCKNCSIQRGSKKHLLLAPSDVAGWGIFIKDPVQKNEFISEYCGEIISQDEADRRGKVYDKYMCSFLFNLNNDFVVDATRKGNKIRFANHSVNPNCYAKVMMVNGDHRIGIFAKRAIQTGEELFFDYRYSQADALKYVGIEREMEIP
EZH2, sequence (O75530 whole entry partner): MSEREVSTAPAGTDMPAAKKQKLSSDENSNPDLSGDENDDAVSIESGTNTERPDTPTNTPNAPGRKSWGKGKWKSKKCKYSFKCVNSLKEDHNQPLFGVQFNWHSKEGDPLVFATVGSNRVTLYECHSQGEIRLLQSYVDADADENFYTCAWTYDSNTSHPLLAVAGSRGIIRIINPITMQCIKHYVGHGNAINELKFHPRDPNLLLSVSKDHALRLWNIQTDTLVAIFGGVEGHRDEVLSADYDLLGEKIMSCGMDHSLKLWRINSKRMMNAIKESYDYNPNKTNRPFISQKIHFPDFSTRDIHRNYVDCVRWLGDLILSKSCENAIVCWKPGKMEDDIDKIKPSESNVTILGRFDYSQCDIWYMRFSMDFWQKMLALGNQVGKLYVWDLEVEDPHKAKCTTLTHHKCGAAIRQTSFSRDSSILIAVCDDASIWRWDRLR
EZH2, sequence (Q15022 whole entry partner): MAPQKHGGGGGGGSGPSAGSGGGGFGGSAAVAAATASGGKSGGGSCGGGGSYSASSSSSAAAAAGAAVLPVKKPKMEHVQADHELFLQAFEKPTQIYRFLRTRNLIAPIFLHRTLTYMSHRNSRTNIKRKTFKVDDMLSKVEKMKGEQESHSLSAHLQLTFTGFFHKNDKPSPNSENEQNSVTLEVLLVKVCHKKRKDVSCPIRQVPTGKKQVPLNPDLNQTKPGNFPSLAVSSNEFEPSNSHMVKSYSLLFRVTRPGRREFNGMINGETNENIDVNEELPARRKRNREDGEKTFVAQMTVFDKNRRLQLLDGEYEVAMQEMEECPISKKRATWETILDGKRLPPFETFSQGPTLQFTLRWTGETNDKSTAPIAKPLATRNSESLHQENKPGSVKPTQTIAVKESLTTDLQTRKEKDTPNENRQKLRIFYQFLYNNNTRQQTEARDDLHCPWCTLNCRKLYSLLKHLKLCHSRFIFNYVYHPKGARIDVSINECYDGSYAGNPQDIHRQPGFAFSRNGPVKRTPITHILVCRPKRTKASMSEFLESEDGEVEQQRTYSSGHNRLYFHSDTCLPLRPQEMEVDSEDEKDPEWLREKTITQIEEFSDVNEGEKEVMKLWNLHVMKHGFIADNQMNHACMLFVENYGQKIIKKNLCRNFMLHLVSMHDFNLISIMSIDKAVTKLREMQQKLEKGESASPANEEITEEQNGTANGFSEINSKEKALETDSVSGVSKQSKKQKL
EZH2, sequence (Q09028 whole entry partner): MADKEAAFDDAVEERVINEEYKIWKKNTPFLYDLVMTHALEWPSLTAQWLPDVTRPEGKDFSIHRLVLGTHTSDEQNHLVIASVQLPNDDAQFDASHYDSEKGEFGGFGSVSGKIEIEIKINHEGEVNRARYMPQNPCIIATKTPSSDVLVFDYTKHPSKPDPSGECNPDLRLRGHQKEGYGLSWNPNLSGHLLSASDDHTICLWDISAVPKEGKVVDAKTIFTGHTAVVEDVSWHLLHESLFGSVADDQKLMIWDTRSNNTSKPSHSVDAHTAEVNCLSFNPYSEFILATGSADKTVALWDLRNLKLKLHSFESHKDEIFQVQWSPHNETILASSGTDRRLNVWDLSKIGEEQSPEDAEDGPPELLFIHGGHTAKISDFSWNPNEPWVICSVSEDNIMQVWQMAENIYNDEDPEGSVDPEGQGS
EZH2, sequence (Q6ZN18 whole entry partner): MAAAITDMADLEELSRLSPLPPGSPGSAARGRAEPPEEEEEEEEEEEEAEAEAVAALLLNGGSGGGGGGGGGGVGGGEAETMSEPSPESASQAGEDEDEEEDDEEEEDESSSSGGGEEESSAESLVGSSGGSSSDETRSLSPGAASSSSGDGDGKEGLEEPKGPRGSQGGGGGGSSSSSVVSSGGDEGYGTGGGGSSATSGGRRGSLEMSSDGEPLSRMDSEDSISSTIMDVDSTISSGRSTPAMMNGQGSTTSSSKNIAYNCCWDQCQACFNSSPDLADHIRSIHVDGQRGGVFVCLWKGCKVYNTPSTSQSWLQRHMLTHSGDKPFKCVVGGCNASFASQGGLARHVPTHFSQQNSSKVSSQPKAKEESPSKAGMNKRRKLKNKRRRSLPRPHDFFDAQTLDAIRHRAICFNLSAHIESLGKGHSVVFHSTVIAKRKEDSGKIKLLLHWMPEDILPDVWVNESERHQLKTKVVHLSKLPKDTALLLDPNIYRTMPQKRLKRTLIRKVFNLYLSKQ

CCN(c1cc(-c2cccc(N(C)C(=O)c3cc(C(C)C)c(O)cc3O)c2)cc(C(=O)NCc2c(C)cc(C)[nH]c2=O)c1C)C1CCOCC1 [Compound 7, 3′-(2,4-Dihydroxy-5-isopropyl-N-methylbenzamido)-N-((4,6-dimethyl-2-oxo-1,2-dihydropyridin-3-yl)methyl)-5-(ethyl(tetrahydro-2H-pyran-4-yl)amino)-4-methyl-[1,1′-biphenyl]-3-carboxamide]
cell cycle [1]: induced cell cycle arrest at the M phase
IC50 [2]: 6.29 nM
EZH2 expression and EZH2-modulated H3K27 trimethylation ([3]; Figure 10B): inhibited
proteins involved in cleaning ROS (catalase, SOD1, glutathione reductase, GPX1) ([3]; Figure 10B): decreased
expression of cleaved caspase-3 ([3]; Figure 10D): upregulate
CENPs protein expression ([3]; Pt3R (Figure 8D)): decreased
expression of CDK1 and cyclin B1 ([3]; Pt3R (Figure 8D)): downregulated
MitoSOX red signal representing ROS produced from mitochondria [4]: remarkably enhanced
BBB penetration [5]: able to penetrate blood–brain barrier (BBB)
ROS level [6]: increased
ROS level [7]: increased
concentration at 0.03 hr ([8]; Rat IV 2 mg/kg, 0.03 hr, read-out: Drug Conc. Avg.): 2790 ng/mL
concentration at 0.08 hr ([8]; Rat IV 2 mg/kg, 0.08 hr, read-out: Drug Conc. Avg.): 929 ng/mL
concentration at 0.25 hr [8, 10]: 406 ng/mL
concentration at 0.5 hr [8, 10]: 218 ng/mL
concentration at 1 hr [8, 10]: 76.6 ng/mL
concentration at 2 hr [8, 10]: 30.5 ng/mL
concentration at 4 hr [8, 10]: 5 ng/mL
concentration at 6 hr [8, 10]: 1.1 ng/mL
AUC(0-inf) ([8]; Rat IV, dose 2 mg/kg): 470 ± 32 ng·h/mL
clearance ([8]; Rat IV, dose 2 mg/kg): 81.8 ± 5.8 mL/min/kg
half-life ([8]; Rat IV, dose 2 mg/kg): 0.8 h
Vd ([8]; Rat IV, dose 2 mg/kg, read-out: Vss): 3 ± 0.5 L/kg
bioavailability ([8]; Rat PO 20 mg/kg vs IV 2 mg/kg): 2.3%
concentration at 0.25 hr [8, 11]: 23 ng/mL
concentration at 0.5 hr [8, 11]: 11.1 ng/mL
concentration at 1 hr [8, 11]: 23.8 ng/mL
concentration at 2 hr [8, 11]: 15.3 ng/mL
concentration at 4 hr [8, 11]: 18.1 ng/mL
concentration at 6 hr [8, 11]: 4 ng/mL
concentration at 8 hr ([8]; Rat PO 20 mg/kg, 8 hr, read-out: Drug Conc. Avg.): 2.9 ng/mL
AUC(0-inf) ([8]; Rat PO, dose 20 mg/kg): 106 ± 62 ng·h/mL
Cmax ([8]; Rat PO, dose 20 mg/kg): 23.8 ± 8.9 ng/mL
Tmax ([8]; Rat PO, dose 20 mg/kg): 1 h
half-life ([8]; Rat PO, dose 20 mg/kg): 1.8 ± 0.5 h
centromere proteins (CENPs) CENPF, CENPE, CENPA, CENPI gene expression ([9]; Pt3R (Figure 8C)): decreased
RBBP8 and BRCA1 gene expression ([9]; Pt3R (Figure 9A)): suppressed
genes regulating homologous recombination (TOP2A, RAD54B, RAD21, EME1, BRIP1) ([9]; Pt3R (Figure 9H)): suppressed
number of gene expressions decreased (RNA-seq) ([9]; Pt3R, 2 μM, 48 h): 498
number of gene expressions increased (RNA-seq) ([9]; Pt3R, 2 μM, 48 h): 297
cell proliferation ([9]; Pt3R, 2 μM, 48 h (Figure 7A)): significantly inhibited cell proliferation
M phase/kinetochore/spindle-related gene expression ([9]; Pt3R, 48 h): decreased
apoptosis/necrosis-related gene expression ([9]; Pt3R, 48 h): increased
